Assay results as given in ChEMBL document CHEMBL3045662, “Synthesis of quinolactacide via an acyl migration reaction and dehydrogenation with manganese dioxide, and its insecticidal activities” (2006).
Calls of active or inactive are those of the source. The calls are words filed in the database; no cut-off is given here.

Tests used:
[1] = system: Tetranychus urticae; test: Insecticidal activity against Tetranychus urticae (two-spotted spider mite) in primary leaf stage of bean plant assessed as mortality at 500 ppm after 2 days; assay type: functional; settings: 48 h
[2] = system: Frankliniella occidentalis; test: Insecticidal activity against Frankliniella occidentalis (western flower thrips) assessed as mortality at 500 ppm; assay type: functional, organism-based
[3] = system: Bemisia argentifolii; test: Insecticidal activity against Bemisia argentifolii assessed as mortality at 500 ppm; assay type: functional, organism-based
[4] = system: Spodoptera litura; test: Insecticidal activity against Spodoptera litura assessed as mortality at 500 ppm; assay type: functional, organism-based
[5] = system: Plutella xylostella; test: Insecticidal activity against third-instar larvae of Plutella xylostella (diamondback moth) in six-leaf stage of cabbage plant assessed as mortality at 500 ppm sprayed over two excised leaf squares after 2 days; assay type: functional; settings: 48 h

Structure (SMILES): O=C1c2c([nH]c3ccccc3c2=O)-c2cccn21 [QUINOLACTACIDE]
- mortality at 500 ppm [1]: 42%
- mortality [2]: inactive
- mortality [3]: inactive
- mortality [4]: inactive
- mortality at 500 ppm [5]: 100%
